Assay results as given in patent US12577217B2, “15-PGDH inhibitor” (KYORIN Pharmaceutical Co., Ltd., priority 2019, dated 2026).

Target: T1, recombinant human 15-PGDH (Homo sapiens, UniProt P15428)
T1 construct: purchased R&D Systems
T1 sequence (P15428 1-266): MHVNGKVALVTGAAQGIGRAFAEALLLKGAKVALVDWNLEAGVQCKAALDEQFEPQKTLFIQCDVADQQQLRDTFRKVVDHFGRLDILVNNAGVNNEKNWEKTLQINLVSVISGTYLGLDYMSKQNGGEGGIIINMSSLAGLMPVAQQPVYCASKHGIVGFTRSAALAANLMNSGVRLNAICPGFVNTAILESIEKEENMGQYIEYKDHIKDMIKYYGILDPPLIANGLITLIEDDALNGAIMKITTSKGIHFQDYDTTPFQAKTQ
Assay: 15-PGDH enzyme inhibition test
Format: biochemical
Settings: 4 nM recombinant human 15-PGDH, 30 μM PGE2, 1 mM NAD+, 60 minutes after starting the reaction; read-out: IC50 Value
How it was run: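 Fluorescence (excitation 340 nm, emission 440 nm) measured 60 min after adding 1 mM NAD+ and 30 μM PGE2 to 4 nM recombinant human 15-PGDH, which had stood 12 min at room temperature with compound in pH 8.0 Tris-HCl buffer. Concentration-response curves yield IC50, binned into potency categories.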

CCn1nc2cc(N3CCCc4cc(C(=O)N5CCC[C@H](CF)C5)cnc43)ccn2c1=O [Example 1-113]
IC50: < 10 nM

Cc1c(C(=O)N2CCCCC2)ccc2c1OCCN2c1ccc(C(=O)O)cc1 [Example 4-1, 4-(8-Methyl-7-(piperidine-1-carbonyl)-2,3-dihydro-4H-benzo[b][1,4]oxazin-4-yl)benzoic Acid]
IC50: < 10 nM

Cn1nc2cc(N3CCCc4cc(C(=O)N5CCC[C@H](CF)C5)cnc43)ccn2c1=O [Example 1-112]
IC50: < 10 nM

CN1Cc2cc(N3CCOc4cc(C(=O)N5CCC(F)(F)CC5)ccc43)ccc2C1=O [Example 1-149]
IC50: < 10 nM

Cn1nc2cc(N3CCOc4cc(C(=O)N5CCCCC5)sc43)ccn2c1=O [Example 8-222]
IC50: < 10 nM

COCCN(C)C(=O)c1cnc2c(c1)OCCN2c1ccn2c(=O)n(C)nc2c1 [Example 8-106]
IC50: < 10 nM

COC(=O)c1cccc(N2CCOc3cc(C(=O)N4CCCCC4)cnc32)c1 [Example 1-262]
IC50: < 10 nM

COCCOCCn1nc2cc(N3CCCc4cc(C(=O)N5CCC(F)(F)CC5)cnc43)ccn2c1=O [Example 1-80]
IC50: < 10 nM

CN1Cc2cc(N3CCOc4cc(C(=O)C5CCCCC5)cnc43)ccc2C1=O [Example 1-134]
IC50: < 10 nM

Cn1nc2cc(N3CCCc4cc(C(=O)N5CCc6ccccc6C5)cnc43)ccn2c1=O [Example 8-130]
IC50: < 10 nM

Cn1nc2cc(N3CCOc4cc(C(=O)N5CCC(Cl)CC5)cnc43)ccn2c1=O [Example 8-113]
IC50: < 10 nM

COCn1nc2cc(N3CCOc4cc(C(=O)N5CCCCC5)cnc43)ccn2c1=O [Example 1-22]
IC50: < 10 nM

O=C(O)c1ccccc1N1CCCc2cc(C(=O)N3CCCCC3)cnc21 [Example 1-212]
IC50: 10 to 100 nM

CCOCn1nc2cc(N3CCCc4cc(C(=O)N5CCCCC5)cnc43)ccn2c1=O [Example 1-57]
IC50: < 10 nM

Cn1nc2cc(N3CCOc4cc(C(=O)N5CCCC(C)(C)C5)cnc43)ccn2c1=O [Example 8-110]
IC50: < 10 nM

O=C(c1cnc2c(c1)CCCN2c1ccc(-c2nn[nH]n2)cc1)N1CCCCC1 [Example 14-7]
IC50: < 10 nM

COCCNC(=O)c1ccc(N2CCCc3cc(C(=O)N4CCC(F)(F)CC4)cnc32)cc1F [Example 1-176]
IC50: < 10 nM

Cn1nc2cc(N3CCCOc4cc(C(=O)N5CCC[C@@H](F)C5)cnc43)ccn2c1=O [Example 8-62]
IC50: < 10 nM

COc1ccc(CN2Cc3cc(N4CCOc5cc(C(=O)N6CCCCC6)cnc54)ccc3C2=O)cc1 [Example 1-37]
IC50: < 10 nM

Cn1nc2cc(N3CCN(c4ccccc4)c4cc(C(=O)N5CCC(F)(F)CC5)cnc43)ccn2c1=O [Example 30-1, 7-(7-(4,4-Difluoropiperidine-1-carbonyl)-1-phenyl-2,3-dihydropyrido[2,3-b]pyrazin-4(1H)-yl)-2-methyl-[1,2,4]triazolo[4,3-a]pyridin-3 (2H)-one]
IC50: 10 to 100 nM

COC(=O)c1ccc(N2CCN(c3ccn4c(=O)n(C)nc4c3)c3ncc(C(=O)N4CCC(F)(F)CC4)cc32)cc1 [Example 30-3]
IC50: 10 to 100 nM

CCN1Cc2cc(N3CCCc4cc(C(=O)N5CCOCC5)cnc43)ccc2C1=O [Example 8-72]
IC50: < 10 nM

Cn1nc2cc(N3CCOc4cc(C(=O)N5CCCCCC5)cnc43)ccn2c1=O [Example 8-102]
IC50: < 10 nM

COc1ccc(N2CCOc3cc(C(=O)N4CCCCC4)cnc32)cc1 [Example 1-245]
IC50: 10 to 100 nM

CC(C)(C)OC(=O)c1ccc(N2CCOc3cc(C(=O)N4CCC[C@@H](F)C4)cnc32)cc1 [Example 8-7]
IC50: 10 to 100 nM

Cn1nc2cc(N3CCOc4cc(C(=O)N5CCCC(C(F)(F)F)C5)cnc43)ccn2c1=O (stereo not shown) [Example 8-109]
IC50: < 10 nM

Cn1nc2cc(N3CCOc4cc(C(=O)N5CCC(F)CC5)cnc43)ccn2c1=O [Example 8-114]
IC50: < 10 nM

CCN1Cc2cc(N3CCCc4cc(C(=O)N5CCC[C@H](C(F)F)C5)cnc43)ccc2C1=O [Example 8-94]
IC50: < 10 nM

Cn1nc2cc(N3CCCc4cc(C(=O)N5CCCCCC5)cnc43)ccn2c1=O [Example 8-124]
IC50: < 10 nM

N#Cc1ccc(N2CCOc3cc(C(=O)N4CCC(F)(F)CC4)ccc32)cc1 [Example 1-17]
IC50: < 10 nM

CN1Cc2cc(N3CCOc4cc(C(=O)N5CCC[C@H](CF)C5)cnc43)ccc2C1=O [Example 8-204]
IC50: < 10 nM

COCn1nc2cc(N3CCOc4cc(C(=O)N5CCC[C@H](C)C5)cnc43)ccn2c1=O [Example 1-41]
IC50: < 10 nM

Cn1nc2cc(N3CCCc4cc(C(=O)N5CCCC(C)(F)C5)cnc43)ccn2c1=O (stereo not shown) [Example 8-141]
IC50: < 10 nM

CNC(=O)Cn1nc2cc(N3CCOc4cc(C(=O)N5CCCCC5)cnc43)ccn2c1=O [Example 6-7]
IC50: < 10 nM

Cn1nc2cc(N3CCOc4cc(C(=O)N5CCCC6CC65)cnc43)ccn2c1=O (single isomer, unassigned) [23-1 Isomer A, 7-(7-(2-Azabicyclo[4,1,0]heptane-2-carbonyl)-2,3-dihydro-4H-pyrido[3,2-b][1,4]oxazin-4-yl)-2-methyl-[1,2,4]triazolo[4,3-a]pyridin-3(2H)-one]
IC50: < 10 nM

Cn1nc2cc(N3CCOc4cc(C(=O)N5CCC[C@@H]5C(N)=O)cnc43)ccn2c1=O [Example 36-2]
IC50: > 100 nM

CCOCCn1nc2cc(N3CCOc4cc(C(=O)N5CCCCC5)cnc43)ccn2c1=O [Example 1-269]
IC50: < 10 nM

CS(=O)(=O)Cc1ccc(N2CCOc3cc(C(=O)N4CCCCC4)ccc32)cc1 [Example 1-162]
IC50: < 10 nM

COc1cc(N2CCOc3cc(C(=O)N4CCC(F)(F)CC4)ccc32)ccc1C(N)=O [Example 5-2]
IC50: < 10 nM

CCn1nc2cc(N3CCOc4cc(C(=O)N5CCCC5)cnc43)ccn2c1=O [Example 8-19]
IC50: < 10 nM

CCN1Cc2cc(N3CCCc4cc(C(=O)N5CCc6ccccc6C5)cnc43)ccc2C1=O [Example 8-76]
IC50: < 10 nM

CCn1nc2cc(N3CCCc4cc(C(=O)N5CCC5)cnc43)ccn2c1=O [Example 8-147]
IC50: < 10 nM

CNC(=O)C1CCC(N2CCOc3cc(C(=O)N4CCCCC4)ccc32)CC1 (stereo not shown) [Example 6-16]
IC50: 10 to 100 nM

O=C(O)c1ccc(N2CCOc3c2ccc(C(=O)N2CCCCC2)c3C2CC2)cc1 [Example 9-1, 4-(8-Cyclopropyl-7-(piperidine-1-carbonyl)-2,3-dihydro-4H-benzo[b][1,4]oxazin-4-yl)benzoic Acid]
IC50: < 10 nM

C[C@H]1CCCCN1C(=O)c1cnc2c(c1)CCCN2c1ccn2c(=O)n(C)nc2c1 [Example 8-133]
IC50: < 10 nM

CN(CC(C)(C)O)C(=O)c1cnc2c(c1)OCCN2c1ccn2c(=O)n(C)nc2c1 [Example 8-182]
IC50: 10 to 100 nM

CNC(=O)c1cn(C)c2cc(N3CCOc4cc(C(=O)N5CCCCC5)cnc43)ccc12 [Example 6-10]
IC50: > 100 nM

COC(=O)c1nc2ccc(N3CCOc4cc(C(=O)N5CCCCC5)cnc43)cc2s1 [Example 11-3]
IC50: < 10 nM

O=C(c1cnc2c(c1)CCCN2c1ccc2c(c1)CN(CC1COC1)C2=O)N1CCCCC1 [Example 1-65]
IC50: < 10 nM

COc1cc(N2CCOc3cc(C(=O)N4CCCCC4)cnc32)ccc1S(C)(=O)=O [Example 1-255]
IC50: 10 to 100 nM

O=C(c1cnc2c(c1)CCCN2c1ccc(F)cc1)N1CCCCC1 [Example 1-214]
IC50: 10 to 100 nM

CN1Cc2cc(N3CCOc4cc(C(=O)N5CCCC5)cnc43)ccc2C1=O [Example 8-185]
IC50: < 10 nM

COC(=O)c1ccc(N2CCOc3cc(C(=O)N4CCCCC4)ccc32)cc1 [Example 1-7]
IC50: < 10 nM

O=C(c1cnc2c(c1)OCCN2c1ccn2ncnc2c1)N1CCCCC1 [Example 1-106]
IC50: < 10 nM

Cc1cc(N2CCOc3cc(C(=O)N4CCCCC4)cnc32)ccc1C(=O)O [Example 4-16]
IC50: < 10 nM

O=C(c1cnc2c(c1)OCCN2c1ccc(-c2nnn[nH]2)cc1)N1CCCCC1 [Example 14-10]
IC50: < 10 nM

CS(=O)(=O)c1ccc(N2CCOc3cc(C(=O)N4CCCCC4)cnc32)cc1 [Example 1-240]
IC50: 10 to 100 nM

CCn1oc2cc(N3CCOc4cc(C(=O)N5CCC(F)(F)CC5)cnc43)ccc2c1=O [Example 8-214]
IC50: < 10 nM

Cn1nc2cc(N3CCOc4cc(C(=O)N5CCCC(F)(F)C5)cnc43)ccn2c1=O [Example 8-24]
IC50: < 10 nM

CCOCCN1Cc2cc(N3CCOc4cc(C(=O)N5CCC(F)(F)CC5)cnc43)ncc2C1=O [Example 1-51]
IC50: 10 to 100 nM

Cn1nc2cc(N3CCOc4cc(C(=O)N5CCCC(C)(F)C5)cnc43)ccn2c1=O (stereo not shown) [Example 8-48]
IC50: < 10 nM

CNC(=O)c1ccc(N2CCCc3cc(C(=O)N4CCCCC4)cnc32)cc1F [Example 1-59]
IC50: < 10 nM

Cc1cc(C(=O)O)ccc1N1CCOc2cc(C(=O)N3CCCCC3)cnc21 [Example 4-18]
IC50: 10 to 100 nM

O=C(O)c1ccc(N2CC[S+]([O-])c3cc(C(=O)N4CCCCC4)ccc32)cc1 (stereo not shown) [Example 2-16]
IC50: 10 to 100 nM

Cn1nc2cc(N3CCCCOc4cc(C(=O)N5CCCCC5)cnc43)ccn2c1=O [Example 1-98]
IC50: 10 to 100 nM

O=C(c1cnc2c(c1)CCCN2c1cc2c(cn1)C(=O)N(CC1COC1)C2)N1CCC(F)(F)CC1 [Example 1-186]
IC50: 10 to 100 nM

Cn1nc2cc(N3CCOc4cc(C(=O)N5CCC[C@H]5C(=O)OC(C)(C)C)cnc43)ccn2c1=O [Example 8-227]
IC50: > 100 nM

Cn1ncc2cc(N3CCCc4cc(C(=O)N5CCCCC5)cnc43)cnc2c1=O [Example 1-194]
IC50: < 10 nM

O=C(O)c1ccc(N2CCCc3cc(C(=O)N4CCCCC4)ccc32)cc1 [Example 2-26]
IC50: < 10 nM

O=C(O)C1CCC(N2CCOc3cc(C(=O)N4CCCCC4)ccc32)CC1 (stereo not shown) [Example 4-14]
IC50: < 10 nM
